This series can be described thus: solvent given as SMILES.

Each structure is given as a SMILES string.

Take `CCCCCCCCC1(CCCCCCCC)c2cc(-c3ccc([N+](=O)[O-])cc3)ccc2-c2ccc(-c3ccc([N+](=O)[O-])cc3)cc21`: the fluorescence lifetime reads like this: (in CN(C)C=O) 1.92 ns; (in CS(C)=O) 1.82 ns.
Consider `[NH3+]c1cc([NH3+])cc(-c2[nH+]c3ccccc3s2)c1`, for which the fluorescence lifetime (in O) amounted to 0.52 ns.
On to `c1coc(-c2nc3ccccc3[nH]2)c1`, for which the fluorescence lifetime amounted to 1.47 ns (in C1CCOC1); 1.48 ns (in CCCCCC); 1.55 ns (in CCO); 1.53 ns (in CCOCC); 1.58 ns (in CO); 0.6 ns (in ClC(Cl)Cl). This molecule came in with a fluorescence lifetime (in ClCCl) of 1.26 ns and a fluorescence lifetime (in O) of 1.67 ns.
`COc1cc2c(cc1-c1ccc([N+](=O)[O-])cc1)Cc1c3c(c4c(c1-2)-c1cc(OC)c(-c2ccc([N+](=O)[O-])cc2)cc1C4)C(=O)N(CCC(C)C)C3=O` showed a fluorescence lifetime (in C1CCOC1) of 1.43 ns.
`CCC1=C(C)C2=Cc3cc(I)c(I)n3[B-](F)(F)[N+]2=C1C`: the fluorescence lifetime reads like this: (in C1CCCCC1) 1.04 ns; (in CC(C)=O) 0.753 ns; (in CCO) 0.943 ns; (in CCOC(C)=O) 0.836 ns; (in CO) 0.848 ns; (in OCC(F)(F)F) 0.676 ns.
In the case of `COC(=O)c1ccc(-c2ccc3c(c2)C(=O)c2cc(-c4ccc(C(=O)OC)cc4)ccc2-3)cc1`, the fluorescence lifetime (in C1CCOC1) is 2.3 ns.
Regarding `Cc1cc(C)c(-c2nnc(-c3ccc(-n4c5ccccc5c5ccccc54)c(C)c3)o2)c(C)c1`, the fluorescence lifetime (in CCO) came out at 1.94 ns.
For the molecule `CN(C)c1ccc(/C=C/c2nc3c4ccccc4c4ccccc4c3[nH]2)cc1`, the fluorescence lifetime is 0.341 ns (in C1CCOC1); 0.484 ns (in C1COCCO1); 0.471 ns (in CC1CCCCC1); 0.356 ns (in CC#N); 0.325 ns (in CCOC(C)=O); 0.391 ns (in CCOCC). The same molecule registered a fluorescence lifetime (in CN(C)C=O) of 0.37 ns; a fluorescence lifetime (in COC(C)=O) of 0.308 ns; a fluorescence lifetime (in CS(C)=O) of 0.384 ns; a fluorescence lifetime (in Cc1ccccc1) of 0.306 ns; a fluorescence lifetime (in ClC(Cl)Cl) of 0.138 ns.
Where the note is “in ClC(Cl)Cl”, `C[Si](C)(C)C#CC(C#C[Si](C)(C)C)=Cc1ccc(C=C(C#C[Si](C)(C)C)C#C[Si](C)(C)C)cc1` displayed a fluorescence lifetime of 0.6 ns.
For the setting “in CC#N”, `Cn1ccc(=O)n(C)c1=O` registered a fluorescence lifetime of 0.0001 ns.
As for `COc1ccc2c(c1)N(c1ccccc1-c1ccccc1)c1cc3c(cc1=N2)Oc1c(cc(C(C)(C)C)cc1C(C)(C)C)N=3`, under “in CCCCCC”, the fluorescence lifetime stood at 0.45 ns.
Regarding `CCOC(=O)CN(CC(=O)OCC)c1ccc(-c2cc(-c3ccccn3)nc(-c3ccccn3)c2)cc1`, the fluorescence lifetime reads like this: (in CC#N) 5.21 ns; (in CCOC(C)=O) 3.84 ns; (in CN(C)C=O) 6.02 ns; (in CS(C)=O) 6.76 ns; (in c1ccccc1) 1.63 ns.
Take `c1csc(-c2ccc(-c3ccc(-c4cccs4)s3)s2)c1`: the fluorescence lifetime is, setting by setting: (in CCC(C)C) 0.52 ns; (in ClCCl) 0.44 ns.
Under “in c1ccccc1”, `O=c1oc2ccc3ccc(O)cc3c2nc1-c1ccccc1` had a fluorescence lifetime of 4.8 ns.
Under “in ClCCl”, `O=[N+]([O-])c1ccc(C#Cc2ccc3ccc(C#Cc4ccc([N+](=O)[O-])cc4)cc3c2)cc1` returned a fluorescence lifetime of 0.27 ns.
Still for that read-out and setting: with `c1ccc(N(c2ccccc2)c2ccc(-c3ccc4c(c3)C3(c5ccccc5Oc5ccccc53)c3cc(-c5ccc(N(c6ccccc6)c6ccccc6)cc5)ccc3-4)cc2)cc1` the figure was 1.2 ns.
`CN(C)c1ccc2nc(-c3ccc(C=O)cc3)sc2c1`: for the setting “in C1CCCCC1”, the fluorescence lifetime amounted to 2.5 ns.
On to `O=P1(c2ccccc2)C(c2cc(C(F)(F)F)cc(C(F)(F)F)c2)=Cc2c3ccc4cccc5ccc(c6cc(-c7ccccc7)n1c26)c3c45` (centres undefined), for which the fluorescence lifetime (in C1CCCCC1) was determined as 1.9 ns; the fluorescence lifetime (in C1CCOC1) was 3.1 ns; the fluorescence lifetime (in C1COCCO1) stood at 2.6 ns; the fluorescence lifetime (in CC#N) came to 3.7 ns; the fluorescence lifetime (in CC(C)=O) was 3.6 ns; the fluorescence lifetime (in CO) came to 3.8 ns. For the same molecule, the fluorescence lifetime is 2.5 ns (in Cc1ccccc1), 2.4 ns (in ClC(Cl)Cl) and 2.9 ns (in ClCCl).
For `COc1ccc(C(=Cc2ccc(/C=C(\C#N)c3ccccc3)cc2)c2ccc(OC)cc2)cc1`, the fluorescence lifetime (in C1CCOC1) was 0.5 ns.
For `CCN(CC)c1ccc2nc3c4ccccc4c(=O)cc-3oc2c1`, the fluorescence lifetime turned out to be 2.76 ns (in C1CCCCC1); 4.5 ns (in C1COCCO1); 4.4 ns (in CC1COC(=O)O1); 4.7 ns (in CC#N); 4.66 ns (in CC(C)=O); 4.1 ns (in CC(C)O). The fluorescence lifetime by setting is: (in CCCC#N) 4.54 ns; (in CCCCCCCCCCO) 4.19 ns; (in CCCCCO) 3.95 ns; (in CCCCO) 3.91 ns; (in CCCCOCCCC) 4.15 ns; (in CCCO) 3.8 ns. Further, the fluorescence lifetime (in CCO) was determined as 3.65 ns; the fluorescence lifetime (in CCOC(C)=O) is 4.53 ns; the fluorescence lifetime (in CCOCC) amounted to 4.45 ns; the fluorescence lifetime (in CN(C)C=O) was 4.35 ns; the fluorescence lifetime (in CO) stood at 2.8 ns; the fluorescence lifetime (in ClC(Cl)(Cl)Cl) was 4.1 ns. Moreover, the fluorescence lifetime (in ClCCl) was 4.48 ns; the fluorescence lifetime (in OC(C(F)(F)F)C(F)(F)F) stood at 0.94 ns; the fluorescence lifetime (in OCC(F)(F)F) was 1.76 ns; the fluorescence lifetime (in OCC(O)CO) stood at 1.95 ns; the fluorescence lifetime (in OCCO) worked out at 2.5 ns; the fluorescence lifetime (in [2H]OC) is 4.2 ns. Under “in [2H]OCC”, this molecule displayed a fluorescence lifetime of 4.56 ns.
Molecule `COCCOCCOCCOCC(COCCOCCOCCOC)Oc1cc(/C=C/c2ccc(/C=C(\C#N)C(=O)c3ccccc3)cc2)c(OC(COCCOCCOCCOC)COCCOCCOCCOC)cc1/C=C/c1ccc(/C=C(\C#N)C(=O)c2ccccc2)cc1` showed a fluorescence lifetime (in ClCCl) of 1 ns.
`CC1(C)C(/C=C/C2=C(c3ccc(C(=O)O)cc3)C(=C/C=C3/N(CCCCS(=O)(=O)[O-])c4ccc5ccccc5c4C3(C)C)/CCC2)=[N+](CCCCS(=O)(=O)[O-])c2ccc3ccccc3c21` showed a fluorescence lifetime (in CC(C)=O) of 0.84 ns; a fluorescence lifetime (in CCO) of 0.69 ns; a fluorescence lifetime (in CO) of 0.61 ns; a fluorescence lifetime (in CS(C)=O) of 0.98 ns; a fluorescence lifetime (in ClC(Cl)Cl) of 1.62 ns; a fluorescence lifetime (in ClCCl) of 1.34 ns. Also, the fluorescence lifetime (in O) was found to be 0.2 ns.
On to `F[B-]1(F)n2c(c3cccc4cccc2c43)=Nc2ccc3ccccc3[n+]21`, for which the fluorescence lifetime (in ClCCl) amounted to 6.1 ns.
For `COc1ccc2c(c1)c1c(OC)c3ccccc3c(OC)c1n2C`, the fluorescence lifetime was found to be 24.1 ns (in C1CCCCC1), 31 ns (in CC#N), 30.7 ns (in CO) and 27.1 ns (in ClCCl).
`c1ccc(-c2nc(-c3ccccc3)nc(-c3ccc(-n4c5ccccc5c5cc6c(cc54)C4(c5ccccc5-c5ccccc54)c4ccccc4-6)cc3)n2)cc1` gave a fluorescence lifetime (in O=P(c1ccccc1)(c1ccccc1)c1ccccc1Oc1ccccc1P(=O)(c1ccccc1)c1ccccc1) of 3.9 ns.
For `Cc1cc2ccc(-c3cccc4cccc(-c5ccc6cc(C)c(=O)oc6c5)c34)cc2oc1=O`, the fluorescence lifetime turned out to be 0.85 ns (in C1CCCCC1), 2.72 ns (in CC#N) and 5.38 ns (in CO).
On to `[NH3+]c1cc([NH3+])cc(-c2nc3ccccc3s2)c1`, for which the fluorescence lifetime (in O) worked out at 0.59 ns.
In the case of `CC(C)(C)OC(=O)n1ccc2c3ccc4cccc5ccc(cc21)c3c54`, the fluorescence lifetime (in CCOC(C)=O) stood at 8.29 ns.
